This is an account of results in patent US5714494A, “Xanthines in the 7th position with a benzyl acetic acid moiety” (Bayer Aktiengesellschaft, priority 1995, dated 1998).

This assay has as its system ApoB-100-associated lipoproteins. Description: Inhibition of the release of ApoB-100-associated lipoproteins from HepG2 cells (immunoassay for human LDL). It is filed as cell-based. The note with it: light absorption 450 nm vs solvent control. As to the method:
The test for detecting inhibition of the release of ApoB-100-associated lipoproteins from liver cells was carried out in vitro using cultured liver cells, preferably using cells of the human line HepG2. These cells are grown under standard conditions in medium for the culture of eucaryotic cells, preferably in RPMI 1640 using 10% foetal calf serum. HepG2 cells synthesize and secrete into the culture supernatant ApoB-100-associated lipoprotein particles which in principle are synthesized in a similar manner to the VLDL and LDL particles which are to be found in the plasma.
These particles can be detected using an immunoassay for human LDL. This immunoassay is carried out using antibodies which have been induced in the rabbit against human LDL under standard conditions. The anti-LDL antibodies (rabbit anti-LDL-Ab) were purified by affinity chromatography on an immunosorbent using human LDL. These purified rabbit anti-LDL Ab are adsorbed on the surface of plastic. Expediently, this adsorption is carried out on the plastic surface of microtitre plates having 96 wells, preferably on MaxiSorp plates. If ApoB-100-associated particles are present in the supernatant of Hep-G2 cells, these can bind to the insolubilized rabbit anti-LDL Ab, and an immune complex is formed which is bound to the plastic surface. Unbound proteins are removed by washing. The immune complex located on the plastic surface is detected using monoclonal antibodies which have been induced against human LDL according to standard conditions and purified. These antibodies were conjugated with the enzyme peroxidase. Peroxidase converts the colourless substrate TMB into a coloured product in the presence of H2 O2. After acidification of the reaction mixture using H2 SO4, the specific light absorption at 450 mn is determined, which is a measure of the amount of ApoB-100-associated particles which have been secreted into the culture supernatant by the HepG2 cells.
The IC50 value indicates at which substance concentration the light absorption is inhibited by 50% in comparison with the control (solvent control without substance).

Where [1] appears, read: Homo sapiens, HepG2, HepG2 cells.

Under “HepG2 cells”, `Cn1c(=O)c2c(ncn2Cc2ccc(C(C(=O)N[C@@H](CO)c3ccccc3)C3CCCC3)cc2)n(C)c1=O` (single isomer, unassigned) [Example 115] displayed an IC50 of 240 nM.

`Cn1c(=O)c2c(nc(Br)n2Cc2ccc(C(C(=O)N[C@@H](CO)c3ccccc3)C3CCCC3)cc2)n(C)c1=O` (single isomer, unassigned) [Example 118] yielded an IC50 (HepG2 cells) of 7 nM.

As to `Cn1c(=O)c2c(nc(-c3ccccc3)n2Cc2ccc(C(C(=O)N[C@@H](CO)c3ccccc3)C3CCCC3)cc2)n(C)c1=O` (single isomer, unassigned) [Example 131], it took 135 nM to reach half-maximal inhibition (HepG2 cells) (IC50).

Regarding `Cc1ccc(-c2nc3c(c(=O)n(C)c(=O)n3C)n2Cc2ccc(C(C(=O)N[C@@H](CO)c3ccccc3)C3CCCC3)cc2)cc1` (single isomer, unassigned) [Example 137], the midpoint of inhibition (HepG2 cells), the IC50, lay at 124 nM.

Regarding `Cn1c(=O)c2c(nc(-c3ccsc3)n2Cc2ccc(C(C(=O)N[C@@H](CO)c3ccccc3)C3CCCC3)cc2)n(C)c1=O` (single isomer, unassigned) [Example 155], the IC50 (HepG2 cells) amounted to 2 nM.

Regarding `Cn1c(=O)c2c(nc(-c3ccsc3)n2Cc2ccc(C(C(=O)N[C@@H](CO)c3ccccc3)C3CCCC3)cc2)n(C)c1=O` (single isomer, unassigned) [Example 156], the IC50 (HepG2 cells) turned out to be 25 nM.

In turn, `Cn1c(=O)c2c(nc(-c3cccs3)n2Cc2ccc(C(C(=O)N[C@@H](CO)c3ccccc3)C3CCCC3)cc2)n(C)c1=O` (single isomer, unassigned) [Example 158] displayed an IC50 (HepG2 cells) of 2 nM.

In turn, `Cn1c(=O)c2c(nc(-c3cccs3)n2Cc2ccc(C(C(=O)N[C@@H](CO)c3ccccc3)C3CCCC3)cc2)n(C)c1=O` (single isomer, unassigned) [Example 159] had an IC50 (HepG2 cells) of 25 nM.

In the case of `Cn1c(=O)c2c(nc(Cc3ccccc3)n2Cc2ccc(C(C(=O)N[C@@H](CO)c3ccccc3)C3CCCC3)cc2)n(C)c1=O` (single isomer, unassigned) [Example 170], the IC50 (HepG2 cells) turned out to be 16 nM.

On to `Cn1c(=O)c2c(nc(Cc3ccccc3)n2Cc2ccc(C(C(=O)N[C@@H](CO)c3ccccc3)C3CCCCC3)cc2)n(C)c1=O` (single isomer, unassigned) [Example 172], for which inhibition under setting [1] was half-maximal at 1 nM (IC50).

Under setting [1], `Cc1cccc(Cc2nc3c(c(=O)n(C)c(=O)n3C)n2Cc2ccc(C(C(=O)N[C@@H](CO)c3ccccc3)C3CCCC3)cc2)c1` (single isomer, unassigned) [Example 180] displayed an IC50 of 5 nM.

As to `Cc1cccc(Cc2nc3c(c(=O)n(C)c(=O)n3C)n2Cc2ccc(C(C(=O)N[C@@H](CO)c3ccccc3)C3CCCC3)cc2)c1` (single isomer, unassigned) [Example 181], where the note is “HepG2 cells”, half-maximal inhibition (IC50) was put at 10 nM.

On to `Cc1ccc(Cc2nc3c(c(=O)n(C)c(=O)n3C)n2Cc2ccc(C(C(=O)N[C@@H](CO)c3ccccc3)C3CCCC3)cc2)cc1` (single isomer, unassigned) [Example 183], for which the IC50 (HepG2 cells) came out at 10 nM.

For `Cc1ccc(Cc2nc3c(c(=O)n(C)c(=O)n3C)n2Cc2ccc(C(C(=O)N[C@@H](CO)c3ccccc3)C3CCCC3)cc2)cc1` (single isomer, unassigned) [Example 184], the midpoint of inhibition (HepG2 cells), the IC50, lay at 24 nM.

With `Cn1c(=O)c2c(nc(Cc3ccccc3Cl)n2Cc2ccc(C(C(=O)N[C@@H](CO)c3ccccc3)C3CCCC3)cc2)n(C)c1=O` (single isomer, unassigned) [Example 189], the half-inhibitory concentration (IC50) (HepG2 cells) was 31 nM.

`Cn1c(=O)c2c(nc(Cc3ccccc3Cl)n2Cc2ccc(C(C(=O)N[C@@H](CO)c3ccccc3)C3CCCC3)cc2)n(C)c1=O` (single isomer, unassigned) [Example 190] yielded an IC50 (HepG2 cells) of 86 nM.

Consider `Cn1c(=O)c2c(nc(Cc3cccc(Cl)c3)n2Cc2ccc(C(C(=O)N[C@@H](CO)c3ccccc3)C3CCCC3)cc2)n(C)c1=O` (single isomer, unassigned) [Example 192], for which the midpoint of inhibition (HepG2 cells), the IC50, lay at 8 nM.

`Cn1c(=O)c2c(nc(Cc3cccc(Cl)c3)n2Cc2ccc(C(C(=O)N[C@@H](CO)c3ccccc3)C3CCCC3)cc2)n(C)c1=O` (single isomer, unassigned) [Example 193]: the IC50 (HepG2 cells) was determined as 62 nM.

Usually IC50 stands for the point on the concentration scale where inhibition reaches its midpoint.
